Measured values: patent US10765114B2, “4-amino-6-(pyridyl and 2-substitutedphenyl)-picolinates and 6-amino-2-(pyridyl and 2-substitutedphenyl)-pyrimidine-4-carboxylates and their use as herbicides” (Dow AgroSciences LLC, priority 2013, dated 2020)

test system: Key Grass and Sedge Weeds as well as Grass Crops; assay: Post-Emergent Test II (Table 6); type: in vivo; conditions: post-emergence, 336 h, CYPSS, 70 g ai/ha, 14 days after application, read-out: Visual Growth Reduction (%) 14 Days After Application CYPSS
In short: (§1)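 Seedlings are raised 7-21 days in Metro-Mix 360 (pH 6.0-6.8) under greenhouse conditions, then sprayed at the first or second true leaf stage. Application is 187 L/ha, with serial rates down to 1/16× of the highest. Plants are subirrigated, and percent injury is rated visually after 14 days.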

Compound | pest or weed control at 70 g/ha [%]
COC(=O)c1nc(-c2ccc(C(F)(F)F)nc2)nc(N)c1OC [Compound 43, methyl 6-amino-5-methoxy-2-(6-(trifluoromethyl)pyridin-3-yl)pyrimidine-4-carboxylate] | 0 to 29

same assay, conditions: post-emergence, 336 h, CYPSS, 140 g ai/ha, 14 days after application, read-out: Visual Growth Reduction (%) 14 Days After Application CYPSS

Compound | pest or weed control at 140 g/ha [%]
COC(=O)c1nc(-c2ccc(C(F)(F)F)nc2)nc(N)c1OC [Compound 43, methyl 6-amino-5-methoxy-2-(6-(trifluoromethyl)pyridin-3-yl)pyrimidine-4-carboxylate] | 60 to 74

same assay, conditions: post-emergence, 336 h, DIGSA: crabgrass (Digitaria sanguinalis), 70 g ai/ha, 14 days after application, read-out: Visual Growth Reduction (%) 14 Days After Application DIGSA

Compound | pest or weed control at 70 g/ha [%]
COC(=O)c1nc(-c2ccc(C(F)(F)F)nc2)nc(N)c1OC [Compound 43, methyl 6-amino-5-methoxy-2-(6-(trifluoromethyl)pyridin-3-yl)pyrimidine-4-carboxylate] | 30 to 44

same assay, conditions: post-emergence, 336 h, DIGSA: crabgrass (Digitaria sanguinalis), 140 g ai/ha, 14 days after application, read-out: Visual Growth Reduction (%) 14 Days After Application DIGSA

Compound | pest or weed control at 140 g/ha [%]
COC(=O)c1nc(-c2ccc(C(F)(F)F)nc2)nc(N)c1OC [Compound 43, methyl 6-amino-5-methoxy-2-(6-(trifluoromethyl)pyridin-3-yl)pyrimidine-4-carboxylate] | 60 to 74

same assay, conditions: post-emergence, 336 h, ECHSS, 70 g ai/ha, 14 days after application, read-out: Visual Growth Reduction (%) 14 Days After Application ECHSS

Compound | pest or weed control at 70 g/ha [%]
COC(=O)c1nc(-c2ccc(C(F)(F)F)nc2)nc(N)c1OC [Compound 43, methyl 6-amino-5-methoxy-2-(6-(trifluoromethyl)pyridin-3-yl)pyrimidine-4-carboxylate] | 0 to 29

same assay, conditions: post-emergence, 336 h, ECHSS, 140 g ai/ha, 14 days after application, read-out: Visual Growth Reduction (%) 14 Days After Application ECHSS

Compound | pest or weed control at 140 g/ha [%]
COC(=O)c1nc(-c2ccc(C(F)(F)F)nc2)nc(N)c1OC [Compound 43, methyl 6-amino-5-methoxy-2-(6-(trifluoromethyl)pyridin-3-yl)pyrimidine-4-carboxylate] | 0 to 29

same assay, conditions: post-emergence, 336 h, ORYSS (crop), 70 g ai/ha, 14 days after application, read-out: Visual Growth Reduction (%) 14 Days After Application ORYSS

Compound | pest or weed control at 70 g/ha [%]
COC(=O)c1nc(-c2ccc(C(F)(F)F)nc2)nc(N)c1OC [Compound 43, methyl 6-amino-5-methoxy-2-(6-(trifluoromethyl)pyridin-3-yl)pyrimidine-4-carboxylate] | 0 to 29

same assay, conditions: post-emergence, 336 h, ORYSS (crop), 140 g ai/ha, 14 days after application, read-out: Visual Growth Reduction (%) 14 Days After Application ORYSS

Compound | pest or weed control at 140 g/ha [%]
COC(=O)c1nc(-c2ccc(C(F)(F)F)nc2)nc(N)c1OC [Compound 43, methyl 6-amino-5-methoxy-2-(6-(trifluoromethyl)pyridin-3-yl)pyrimidine-4-carboxylate] | 0 to 29

same assay, conditions: post-emergence, 336 h, SETFA: giant foxtail (Setaria faberi), 70 g ai/ha, 14 days after application, read-out: Visual Growth Reduction (%) 14 Days After Application SETFA

Compound | pest or weed control at 70 g/ha [%]
COC(=O)c1nc(-c2ccc(C(F)(F)F)nc2)nc(N)c1OC [Compound 43, methyl 6-amino-5-methoxy-2-(6-(trifluoromethyl)pyridin-3-yl)pyrimidine-4-carboxylate] | 0 to 29

same assay, conditions: post-emergence, 336 h, SETFA: giant foxtail (Setaria faberi), 140 g ai/ha, 14 days after application, read-out: Visual Growth Reduction (%) 14 Days After Application SETFA

Compound | pest or weed control at 140 g/ha [%]
COC(=O)c1nc(-c2ccc(C(F)(F)F)nc2)nc(N)c1OC [Compound 43, methyl 6-amino-5-methoxy-2-(6-(trifluoromethyl)pyridin-3-yl)pyrimidine-4-carboxylate] | 0 to 29

same assay, conditions: post-emergence, 336 h, SORVU: grain sorghum (Sorghum vulgare), 70 g ai/ha, 14 days after application, read-out: Visual Growth Reduction (%) 14 Days After Application SORVU

Compound | pest or weed control at 70 g/ha [%]
COC(=O)c1nc(-c2ccc(C(F)(F)F)nc2)nc(N)c1OC [Compound 43, methyl 6-amino-5-methoxy-2-(6-(trifluoromethyl)pyridin-3-yl)pyrimidine-4-carboxylate] | 0 to 29

same assay, conditions: post-emergence, 336 h, SORVU: grain sorghum (Sorghum vulgare), 140 g ai/ha, 14 days after application, read-out: Visual Growth Reduction (%) 14 Days After Application SORVU

Compound | pest or weed control at 140 g/ha [%]
COC(=O)c1nc(-c2ccc(C(F)(F)F)nc2)nc(N)c1OC [Compound 43, methyl 6-amino-5-methoxy-2-(6-(trifluoromethyl)pyridin-3-yl)pyrimidine-4-carboxylate] | 0 to 29

same assay, conditions: post-emergence, 336 h, TRZSS (crop), 70 g ai/ha, 14 days after application, read-out: Visual Growth Reduction (%) 14 Days After Application TRZSS

Compound | pest or weed control at 70 g/ha [%]
COC(=O)c1nc(-c2ccc(C(F)(F)F)nc2)nc(N)c1OC [Compound 43, methyl 6-amino-5-methoxy-2-(6-(trifluoromethyl)pyridin-3-yl)pyrimidine-4-carboxylate] | 0 to 29

same assay, conditions: post-emergence, 336 h, TRZSS (crop), 140 g ai/ha, 14 days after application, read-out: Visual Growth Reduction (%) 14 Days After Application TRZSS

Compound | pest or weed control at 140 g/ha [%]
COC(=O)c1nc(-c2ccc(C(F)(F)F)nc2)nc(N)c1OC [Compound 43, methyl 6-amino-5-methoxy-2-(6-(trifluoromethyl)pyridin-3-yl)pyrimidine-4-carboxylate] | 0 to 29

same assay, conditions: post-emergence, 336 h, ZEAMX: maize, corn (Zea mays), 70 g ai/ha, 14 days after application, read-out: Visual Growth Reduction (%) 14 Days After Application ZEAMX

Compound | pest or weed control at 70 g/ha [%]
COC(=O)c1nc(-c2ccc(C(F)(F)F)nc2)nc(N)c1OC [Compound 43, methyl 6-amino-5-methoxy-2-(6-(trifluoromethyl)pyridin-3-yl)pyrimidine-4-carboxylate] | 0 to 29

same assay, conditions: post-emergence, 336 h, ZEAMX: maize, corn (Zea mays), 140 g ai/ha, 14 days after application, read-out: Visual Growth Reduction (%) 14 Days After Application ZEAMX

Compound | pest or weed control at 140 g/ha [%]
COC(=O)c1nc(-c2ccc(C(F)(F)F)nc2)nc(N)c1OC [Compound 43, methyl 6-amino-5-methoxy-2-(6-(trifluoromethyl)pyridin-3-yl)pyrimidine-4-carboxylate] | 0 to 29

test system: Key Broadleaf Weed and Crop Species; assay: Post-Emergent Test II (Table 5); type: in vivo; conditions: Abutilon theophrasti, post-emergence, 336 h, ABUTH: velvetleaf (Abutilon theophrasti), application rate 70 (kg ai/ha; footnote: g ai/ha), read-out: Visual Growth Reduction (%) 14 Days After Application ABUTH
In short: as §1

Compound | pest or weed control at 70 g/ha [%]
COC(=O)c1nc(-c2ccc(C(F)(F)F)nc2)nc(N)c1OC [Compound 43, methyl 6-amino-5-methoxy-2-(6-(trifluoromethyl)pyridin-3-yl)pyrimidine-4-carboxylate] | 0 to 29

same assay, conditions: Abutilon theophrasti, post-emergence, 336 h, ABUTH: velvetleaf (Abutilon theophrasti), application rate 140 (kg ai/ha; footnote: g ai/ha), read-out: Visual Growth Reduction (%) 14 Days After Application ABUTH

Compound | pest or weed control at 140 g/ha [%]
COC(=O)c1nc(-c2ccc(C(F)(F)F)nc2)nc(N)c1OC [Compound 43, methyl 6-amino-5-methoxy-2-(6-(trifluoromethyl)pyridin-3-yl)pyrimidine-4-carboxylate] | 0 to 29

same assay, conditions: Amaranthus retroflexus, post-emergence, 336 h, AMARE: redroot pigweed (Amaranthus retroflexus), application rate 70 (kg ai/ha; footnote: g ai/ha), read-out: Visual Growth Reduction (%) 14 Days After Application AMARE

Compound | pest or weed control at 70 g/ha [%]
COC(=O)c1nc(-c2ccc(C(F)(F)F)nc2)nc(N)c1OC [Compound 43, methyl 6-amino-5-methoxy-2-(6-(trifluoromethyl)pyridin-3-yl)pyrimidine-4-carboxylate] | 30 to 44

same assay, conditions: Amaranthus retroflexus, post-emergence, 336 h, AMARE: redroot pigweed (Amaranthus retroflexus), application rate 140 (kg ai/ha; footnote: g ai/ha), read-out: Visual Growth Reduction (%) 14 Days After Application AMARE

Compound | pest or weed control at 140 g/ha [%]
COC(=O)c1nc(-c2ccc(C(F)(F)F)nc2)nc(N)c1OC [Compound 43, methyl 6-amino-5-methoxy-2-(6-(trifluoromethyl)pyridin-3-yl)pyrimidine-4-carboxylate] | 60 to 74

same assay, conditions: Brassica napus, post-emergence, 336 h, BRSSS: oilseed rape, canola (Brassica napus), application rate 70 (kg ai/ha; footnote: g ai/ha), read-out: Visual Growth Reduction (%) 14 Days After Application BRSSS

Compound | pest or weed control at 70 g/ha [%]
COC(=O)c1nc(-c2ccc(C(F)(F)F)nc2)nc(N)c1OC [Compound 43, methyl 6-amino-5-methoxy-2-(6-(trifluoromethyl)pyridin-3-yl)pyrimidine-4-carboxylate] | 30 to 44

same assay, conditions: Brassica napus, post-emergence, 336 h, BRSSS: oilseed rape, canola (Brassica napus), application rate 140 (kg ai/ha; footnote: g ai/ha), read-out: Visual Growth Reduction (%) 14 Days After Application BRSSS

Compound | pest or weed control at 140 g/ha [%]
COC(=O)c1nc(-c2ccc(C(F)(F)F)nc2)nc(N)c1OC [Compound 43, methyl 6-amino-5-methoxy-2-(6-(trifluoromethyl)pyridin-3-yl)pyrimidine-4-carboxylate] | 45 to 59

same assay, conditions: Chenopodium album, post-emergence, 336 h, CHEAL: lambsquarters (Chenopodium album), application rate 70 (kg ai/ha; footnote: g ai/ha), read-out: Visual Growth Reduction (%) 14 Days After Application CHEAL

Compound | pest or weed control at 70 g/ha [%]
COC(=O)c1nc(-c2ccc(C(F)(F)F)nc2)nc(N)c1OC [Compound 43, methyl 6-amino-5-methoxy-2-(6-(trifluoromethyl)pyridin-3-yl)pyrimidine-4-carboxylate] | 0 to 29

same assay, conditions: Chenopodium album, post-emergence, 336 h, CHEAL: lambsquarters (Chenopodium album), application rate 140 (kg ai/ha; footnote: g ai/ha), read-out: Visual Growth Reduction (%) 14 Days After Application CHEAL

Compound | pest or weed control at 140 g/ha [%]
COC(=O)c1nc(-c2ccc(C(F)(F)F)nc2)nc(N)c1OC [Compound 43, methyl 6-amino-5-methoxy-2-(6-(trifluoromethyl)pyridin-3-yl)pyrimidine-4-carboxylate] | 0 to 29

same assay, conditions: Euphorbia heterophylla, post-emergence, 336 h, EPHHL: wild poinsettia (Euphorbia heterophylla), application rate 70 (kg ai/ha; footnote: g ai/ha), read-out: Visual Growth Reduction (%) 14 Days After Application EPHHL

Compound | pest or weed control at 70 g/ha [%]
COC(=O)c1nc(-c2ccc(C(F)(F)F)nc2)nc(N)c1OC [Compound 43, methyl 6-amino-5-methoxy-2-(6-(trifluoromethyl)pyridin-3-yl)pyrimidine-4-carboxylate] | 30 to 44

same assay, conditions: Euphorbia heterophylla, post-emergence, 336 h, EPHHL: wild poinsettia (Euphorbia heterophylla), application rate 140 (kg ai/ha; footnote: g ai/ha), read-out: Visual Growth Reduction (%) 14 Days After Application EPHHL

Compound | pest or weed control at 140 g/ha [%]
COC(=O)c1nc(-c2ccc(C(F)(F)F)nc2)nc(N)c1OC [Compound 43, methyl 6-amino-5-methoxy-2-(6-(trifluoromethyl)pyridin-3-yl)pyrimidine-4-carboxylate] | 60 to 74

same assay, conditions: Helianthus annuus, post-emergence, 336 h, HELAN: sunflower (Helianthus annuus), application rate 70 (kg ai/ha; footnote: g ai/ha), read-out: Visual Growth Reduction (%) 14 Days After Application HELAN

Compound | pest or weed control at 70 g/ha [%]
COC(=O)c1nc(-c2ccc(C(F)(F)F)nc2)nc(N)c1OC [Compound 43, methyl 6-amino-5-methoxy-2-(6-(trifluoromethyl)pyridin-3-yl)pyrimidine-4-carboxylate] | 0 to 29

same assay, conditions: Helianthus annuus, post-emergence, 336 h, HELAN: sunflower (Helianthus annuus), application rate 140 (kg ai/ha; footnote: g ai/ha), read-out: Visual Growth Reduction (%) 14 Days After Application HELAN

Compound | pest or weed control at 140 g/ha [%]
COC(=O)c1nc(-c2ccc(C(F)(F)F)nc2)nc(N)c1OC [Compound 43, methyl 6-amino-5-methoxy-2-(6-(trifluoromethyl)pyridin-3-yl)pyrimidine-4-carboxylate] | 30 to 44

same assay, conditions: Viola tricolor, post-emergence, 336 h, VIOTR: wild pansy (Viola tricolor), application rate 70 (kg ai/ha; footnote: g ai/ha), read-out: Visual Growth Reduction (%) 14 Days After Application VIOTR

Compound | pest or weed control at 70 g/ha [%]
COC(=O)c1nc(-c2ccc(C(F)(F)F)nc2)nc(N)c1OC [Compound 43, methyl 6-amino-5-methoxy-2-(6-(trifluoromethyl)pyridin-3-yl)pyrimidine-4-carboxylate] | 0 to 29

same assay, conditions: Viola tricolor, post-emergence, 336 h, VIOTR: wild pansy (Viola tricolor), application rate 140 (kg ai/ha; footnote: g ai/ha), read-out: Visual Growth Reduction (%) 14 Days After Application VIOTR

Compound | pest or weed control at 140 g/ha [%]
COC(=O)c1nc(-c2ccc(C(F)(F)F)nc2)nc(N)c1OC [Compound 43, methyl 6-amino-5-methoxy-2-(6-(trifluoromethyl)pyridin-3-yl)pyrimidine-4-carboxylate] | 0 to 29

test system: not given; assay: not given; conditions: not given

melting point [°C] | Compound
148 to 149 | COC(=O)c1nc(-c2ccc(C(F)(F)F)nc2)nc(N)c1OC [Compound 43, methyl 6-amino-5-methoxy-2-(6-(trifluoromethyl)pyridin-3-yl)pyrimidine-4-carboxylate]
